Assay results as given in US11958816B1, “N′-({[(5-phenyl-1,3,4-oxadiazol-2-yl)sulfanyl]acetyl}oxy)benzenecarboximidamide as an antimicrobial compound” (KING FAISAL UNIVERSITY, priority 2023, dated 2024).

Assays:
Format in all cases: cell-based
Bacillus cereus = assay: Agar plate disc-diffusion, antibacterial activity (inhibition zone); conditions: nutrient agar, 37° C., 48 h, DMSO zone subtracted
Experimental: (§1) The agar plate disc-diffusion method was applied. […] The discs were then placed onto the surface of agar plates (nutrient agar for bacteria and Sabouraud's dextrose agar for fungi) seeded with the test organism. Each plate contained 15 mL of the agar medium, previously seeded with 0.2 mL of the broth culture of each organism pregrown for 18 hours. The plates were incubated at 37° C. for 48 h, and 72 h for fungi. The inhibition zones were measured in mm. Discs impregnated with DMSO were used as a control, and its inhibition zone was subtracted from the tested compound actual inhibition zone.

Escherichia coli = assay: as above; conditions: nutrient agar, 37° C., 48 h, DMSO zone subtracted
Experimental: as §1

Pseudomonas aeruginosa = assay: as above; conditions: nutrient agar, 37° C., 48 h, DMSO zone subtracted
Experimental: as §1

Staphylococcus aureus = assay: as above; conditions: nutrient agar, 37° C., 48 h, DMSO zone subtracted
Experimental: as §1

Aspergillus flavus = assay: Agar plate disc-diffusion, antifungal activity (inhibition zone); conditions: Sabouraud's dextrose agar, 37° C., 72 h, DMSO zone subtracted
Experimental: as §1

[1] = test system: Chrysosporium keratinophilum; assay: as above; conditions: Sabouraud's dextrose agar, 37° C., 72 h, DMSO zone subtracted
Experimental: as §1

[2] = A = concentration of comp. = 10,000 μL
[3] = B = concentration of comp. = 30,000 μL
[4] = C = concentration of comp. = 50,000 μL

## N/C(=N\OC(=O)CSc1nnc(-c2ccccc2)o1)c1ccccc1 [Compound 3, N′-({[(5-phenyl-1,3,4-oxadiazol-2-yl)sulfanyl]acetyl}oxy)benzenecarboximidamide]
Bacillus cereus; [2]
  inhibition zone, Bacillus Cereus, A: 23 mm
Bacillus cereus; [3]
  inhibition zone, Bacillus Cereus, B: 28 mm
Bacillus cereus; [4]
  inhibition zone, Bacillus Cereus, C: 40 mm
Escherichia coli; [2]
  inhibition zone, Escherichia coli, A: 25 mm
Escherichia coli; [3]
  inhibition zone, Escherichia coli, B: 37 mm
Escherichia coli; [4]
  inhibition zone, Escherichia coli, C: 45 mm
Pseudomonas aeruginosa; [2]
  inhibition zone, Pseudomonas aeruginosa, A: 17 mm
Pseudomonas aeruginosa; [3]
  inhibition zone, Pseudomonas aeruginosa, B: 24 mm
Pseudomonas aeruginosa; [4]
  inhibition zone, Pseudomonas aeruginosa, C: 36 mm
Staphylococcus aureus; [2]
  inhibition zone, Staphylococcus aureus, A: 24 mm
Staphylococcus aureus; [3]
  inhibition zone, Staphylococcus aureus, B: 28 mm
Staphylococcus aureus; [4]
  inhibition zone, Staphylococcus aureus, C: 37 mm
Aspergillus flavus; [2]
  inhibition zone, Aspergillus flavus, A: 24 mm
Aspergillus flavus; [3]
  inhibition zone, Aspergillus flavus, B: 29 mm
Aspergillus flavus; [4]
  inhibition zone, Aspergillus flavus, C: 41 mm
[1]; [2]
  inhibition zone, Chrysosporium keratinophilum, A: 23 mm
[1]; [3]
  inhibition zone, Chrysosporium keratinophilum, B: 26 mm
[1]; [4]
  inhibition zone, Chrysosporium keratinophilum, C: 40 mm
